Test results reported in ChEMBL document CHEMBL3112394, “Identification of the 5,5-dioxo-7,8-dihydro-6H-thiopyrano[3,2-d]pyrimidine derivatives as highly selective PDE4B inhibitors” (Bioorg Med Chem Lett, 2014).

Experiments:
Homo sapiens [1] = species: Homo sapiens; assay: Selectivity ratio of IC50 for full-length human PDE4D2 to IC50 for full-length human PDE4B2
[2] = biological target: 3',5'-cyclic-AMP phosphodiesterase 4B (Homo sapiens, UniProt Q07343); assay: Inhibition of full-length human PDE4B2 assessed as cAMP hydrolysis preincubated for 20 mins followed by cAMP addition measured after 30 mins
3',5'-cyclic-AMP phosphodiesterase 4B, sequence (Q07343 whole entry): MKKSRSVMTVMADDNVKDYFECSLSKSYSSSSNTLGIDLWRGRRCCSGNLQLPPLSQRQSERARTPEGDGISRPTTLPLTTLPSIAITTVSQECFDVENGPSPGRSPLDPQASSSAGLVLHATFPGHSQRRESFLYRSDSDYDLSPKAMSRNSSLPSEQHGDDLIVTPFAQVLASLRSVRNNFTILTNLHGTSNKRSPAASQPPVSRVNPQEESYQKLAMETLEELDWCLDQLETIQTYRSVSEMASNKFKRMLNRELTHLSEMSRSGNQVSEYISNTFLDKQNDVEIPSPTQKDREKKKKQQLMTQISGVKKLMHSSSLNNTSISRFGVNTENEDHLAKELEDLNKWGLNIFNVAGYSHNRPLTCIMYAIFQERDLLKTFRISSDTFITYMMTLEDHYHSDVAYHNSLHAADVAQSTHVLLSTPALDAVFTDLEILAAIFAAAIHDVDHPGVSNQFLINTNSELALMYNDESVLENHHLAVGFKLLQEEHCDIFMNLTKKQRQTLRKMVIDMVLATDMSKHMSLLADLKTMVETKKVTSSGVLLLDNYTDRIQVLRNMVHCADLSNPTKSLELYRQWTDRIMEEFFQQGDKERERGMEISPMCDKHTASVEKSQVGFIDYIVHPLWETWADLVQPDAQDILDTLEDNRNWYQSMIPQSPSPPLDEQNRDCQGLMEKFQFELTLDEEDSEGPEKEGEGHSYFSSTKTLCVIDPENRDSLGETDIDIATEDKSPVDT

[3] = biological target: T1, 3',5'-cyclic-AMP phosphodiesterase 4D (Homo sapiens, UniProt Q08499); assay: Inhibition of full-length human PDE4D2 assessed as cAMP hydrolysis preincubated for 20 mins followed by cAMP addition measured after 30 mins
T1 sequence (Q08499 whole entry): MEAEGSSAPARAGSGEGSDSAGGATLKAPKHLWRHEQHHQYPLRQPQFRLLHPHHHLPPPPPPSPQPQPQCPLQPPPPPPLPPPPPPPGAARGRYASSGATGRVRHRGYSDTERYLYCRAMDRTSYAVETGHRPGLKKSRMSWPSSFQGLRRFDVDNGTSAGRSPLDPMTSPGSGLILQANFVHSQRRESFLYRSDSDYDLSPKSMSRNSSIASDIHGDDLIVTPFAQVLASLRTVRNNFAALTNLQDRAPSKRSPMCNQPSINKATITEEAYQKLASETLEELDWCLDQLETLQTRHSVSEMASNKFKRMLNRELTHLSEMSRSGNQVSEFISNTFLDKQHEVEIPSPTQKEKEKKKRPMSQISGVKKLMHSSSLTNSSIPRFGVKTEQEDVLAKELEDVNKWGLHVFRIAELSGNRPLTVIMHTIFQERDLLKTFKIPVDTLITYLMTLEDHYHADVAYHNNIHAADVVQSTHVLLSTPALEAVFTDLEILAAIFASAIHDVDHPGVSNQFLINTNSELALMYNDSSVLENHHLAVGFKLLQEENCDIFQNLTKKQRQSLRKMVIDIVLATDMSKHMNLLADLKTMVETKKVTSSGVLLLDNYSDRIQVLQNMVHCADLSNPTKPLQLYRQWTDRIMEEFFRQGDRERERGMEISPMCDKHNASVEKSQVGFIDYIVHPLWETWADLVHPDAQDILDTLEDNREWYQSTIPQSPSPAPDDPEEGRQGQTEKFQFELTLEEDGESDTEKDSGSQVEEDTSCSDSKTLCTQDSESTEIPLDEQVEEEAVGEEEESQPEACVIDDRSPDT

[4] = biological target: T1, 3',5'-cyclic-AMP phosphodiesterase 4D; assay: Inhibition of recombinant human PDE4D (78 to 508)
Homo sapiens [5] = species: Homo sapiens; assay: Selectivity ratio of IC50 for recombinant human PDE4D (78 to 508) to IC50 for recombinant human PDE4B (152 to 564)
[6] = AUC in mouse at 10 mg/kg, po; assay type: ADME, organism-based; set-up: dose 10 mg/kg, route oral; conditions: plasma
[7] = 1-octanol-phosphate buffered saline distribution coefficient, log D of the compound at 200 uM at pH 7.4 after 30 mins by shake flask method; assay type: physicochemical
[8] = Antiinflammatory activity in Balb/c mouse splenocytes assessed as inhibition of LPS-induced TNF-alpha production after 18 to 24 hrs; assay type: functional, cell-based; conditions: Splenocyte
[9] = Terminal half life in mouse at 10 mg/kg, po; assay type: ADME, organism-based; set-up: dose 10 mg/kg, route oral; conditions: in vivo, read-out: beta t1/2 (converted)
[10] = Cmax in mouse at 10 mg/kg, po; assay type: ADME, organism-based; set-up: dose 10 mg/kg, route oral; conditions: in vivo
[11] = Permeability of the compound at 50 uM at pH 7.4 after 4 hrs by PAMPA; assay type: ADME; conditions: read-out: permeability

Row | Ratio IC50 (Homo sapiens [1]) | IC50 [2] [nM] | IC50 [3] [nM] | SMILES | other results
1 | 6.2 | 210 | 1300 | O=C(O)Cc1ccc(Nc2nc(-c3ccccc3)nc3c2SCCC3)cc1 | IC50 [4]: 1300 nM; Ratio IC50 (Homo sapiens [5]): 45
2 | 12 | 57 | 680 | O=C(O)Cc1ccc(Nc2nc(-c3cccc(F)c3)nc3c2SCCC3)cc1 | –
3 | 16 | 140 | 2200 | COc1ccc(-c2nc3c(c(Nc4ccc(CC(=O)O)cc4)n2)SCCC3)c(F)c1F | –
4 | 112 | 5.2 | 580 | COc1ccc(-c2nc3c(c(Nc4cc(F)c(CC(=O)O)c(F)c4)n2)S(=O)(=O)CCC3)cc1F | –
5 | 81 | 16 | 1300 | COc1ccc(-c2nc3c(c(Nc4cc(F)c(CC(=O)O)cc4F)n2)S(=O)(=O)CCC3)cc1F | –
6 | 3.9 | 880 | 3400 | O=C(O)Cc1ccc(Nc2nc(-c3ccccc3F)nc3c2SCCC3)cc1 | –
7 | 135 | 4.6 | 620 | COc1ccc(-c2nc3c(c(Nc4ccc(CC(=O)O)c(F)c4)n2)S(=O)(=O)CCC3)cc1F | AUC [6]: 2770 ng·h/mL; logD at 0.5 h, 200 µM [7]: 0.8; IC50 [8]: 18 nM; half-life [9]: 2 h; Cmax [10]: 1700 ng/mL; Papp at 4 h, 50 µM [11]: 14.3 ×10⁻⁶ cm/s
8 | 21 | 38 | 790 | O=C(O)Cc1ccc(Nc2nc(-c3ccc(-c4ccccc4)cc3)nc3c2S(=O)(=O)CCC3)cc1 | –
9 | 8.3 | 120 | 1000 | O=C(O)Cc1ccc(Nc2nc(-c3ccc(F)cc3)nc3c2SCCC3)cc1 | –
10 | 158 | 3.8 | 600 | O=C(O)Cc1ccc(Nc2nc(-c3cc4ccccc4s3)nc3c2S(=O)(=O)CCC3)cc1F | IC50 [8]: 11 nM
11 | 55 | 38 | 2100 | CN(C)c1ccc(-c2nc3c(c(Nc4ccc(CC(=O)O)cc4)n2)S(=O)(=O)CCC3)cc1 | –
12 | 53 | 140 | 7400 | COc1ccc(-c2nc3c(c(Nc4ccc(CC(=O)O)cc4)n2)SCCC3)cn1 | –
13 | 29 | 34 | 1000 | CC(=O)c1ccc(-c2nc3c(c(Nc4ccc(CC(=O)O)cc4)n2)SCCC3)cc1 | –
14 | 20 | 64 | 1300 | COc1ccc(-c2nc3c(c(Nc4ccc(CC(=O)O)c(Cl)c4)n2)S(=O)(=O)CCC3)cc1F | –
15 | 9.7 | 30 | 290 | COc1cccc2cc(-c3nc4c(c(Nc5ccc(CC(=O)O)cc5)n3)S(=O)(=O)CCC4)ccc12 | –
16 | 21 | 56 | 1200 | CN(C)c1ccc(-c2nc3c(c(Nc4ccc(CC(=O)O)cc4)n2)S(=O)(=O)CCC3)cn1 | –
17 | 27 | 19 | 520 | O=C(O)Cc1ccc(Nc2nc(-c3ccc4ccccc4c3)nc3c2S(=O)(=O)CCC3)cc1 | –
18 | 100 | 13 | 1300 | COc1ccc(-c2nc3c(c(Nc4ccc(CC(=O)O)cc4)n2)S(=O)(=O)CCC3)cc1Cl | –
19 | 171 | 8.2 | 1400 | COc1ccc(-c2nc3c(c(Nc4ccc(CC(=O)O)c(F)c4)n2)S(=O)(=O)CCC3)c(F)c1F | IC50 [8]: 131 nM
20 | 433 | 3 | 1300 | COc1ccc(-c2nc3c(c(Nc4ccc(CC(=O)O)c(F)c4)n2)S(=O)(=O)CCC3)cc1Cl | IC50 [8]: 11 nM
21 | 55 | 20 | 1100 | O=C(O)Cc1ccc(Nc2nc(-c3cc4ccccc4o3)nc3c2S(=O)(=O)CCC3)cc1 | –

Row | Ratio IC50 (Homo sapiens [1]) | IC50 [2] [nM] | IC50 [3] [nM] | SMILES | other results
22 | 21 | 38 | 790 | CN(C)c1ccc(-c2nc3c(c(Nc4ccc(CC(=O)O)cc4)n2)SCCC3)cc1 | –
23 | 2.6 | 70 | 180 | CCCCNC(=O)Cc1ccc(Nc2nc(-c3ccccc3)nc3c2S(=O)(=O)CCC3)cc1 | IC50 [4]: 260 nM; Ratio IC50 (Homo sapiens [5]): 12
24 | 34 | 44 | 1500 | COc1ccc(-c2nc3c(c(Nc4ccc(CC(=O)O)cc4)n2)S(=O)(=O)CCC3)cc1 | –
25 | 15 | 120 | 1800 | COc1cccc(-c2nc3c(c(Nc4ccc(CC(=O)O)cc4)n2)SCCC3)c1 | –
26 | 6.1 | 71 | 430 | COc1ccc(-c2nc3c(c(Nc4ccc(CC(=O)O)cc4)n2)SCCC3)cc1Cl | –
27 | 57 | 9.9 | 560 | COc1ccc(-c2nc3c(c(Nc4cc(F)c(CC(=O)O)cc4Cl)n2)S(=O)(=O)CCC3)cc1F | –
28 | 3.5 | 120 | 420 | O=C(O)Cc1ccc(Nc2nc(-c3ccc(Cl)cc3)nc3c2SCCC3)cc1 | –
29 | 86 | 10 | 860 | CC(=O)c1ccc(-c2nc3c(c(Nc4ccc(CC(=O)O)cc4)n2)S(=O)(=O)CCC3)cc1 | –
30 | 173 | 7.5 | 1300 | COc1ccc(-c2nc3c(c(Nc4ccc(CC(=O)O)c(F)c4)n2)S(=O)(=O)CCC3)cc1 | IC50 [8]: 96 nM
31 | 12 | 49 | 600 | COc1ccc(-c2nc3c(c(Nc4cc(Cl)c(CC(=O)O)cc4Cl)n2)S(=O)(=O)CCC3)cc1F | –
32 | 3.8 | 78 | 300 | COc1ccc(-c2nc3c(c(Nc4ccc(CC(=O)NCC(C)(C)C)cc4)n2)S(=O)(=O)CCC3)cc1F | –
33 | 3.7 | 150 | 550 | O=C(O)Cc1ccc(Nc2nc(-c3ccccc3)nc3c2S(=O)(=O)CCC3)cc1 | IC50 [4]: 2800 nM; Ratio IC50 (Homo sapiens [5]): 112
34 | 25 | 11 | 280 | COc1ccc(-c2nc3c(c(Nc4ccc(CC(=O)O)cc4)n2)SCCC3)cc1 | –
35 | 9.7 | 30 | 290 | N#Cc1ccc(-c2nc3c(c(Nc4ccc(CC(=O)O)cc4)n2)SCCC3)cc1 | –
36 | 100 | 10 | 1000 | COc1ccc(-c2nc3c(c(Nc4ccc(CC(=O)O)cc4)n2)S(=O)(=O)CCC3)cc1F | –
37 | 31 | 14 | 440 | O=C(O)Cc1ccc(Nc2nc(-c3ccc4c(F)cccc4c3)nc3c2S(=O)(=O)CCC3)cc1 | –
38 | 11 | 140 | 1600 | CN(C)c1ccc(-c2nc3c(c(Nc4ccc(CC(=O)O)cc4)n2)SCCC3)cn1 | –
39 | 48 | 8.3 | 400 | O=C(O)Cc1ccc(Nc2nc(-c3cc4ccccc4s3)nc3c2S(=O)(=O)CCC3)cc1 | –
40 | 15 | 250 | 3800 | COc1ccc(-c2nc3c(c(Nc4ccc(CC(=O)O)cc4)n2)S(=O)(=O)CCC3)cn1 | –
41 | 74 | 46 | 3400 | COc1ccc(-c2nc3c(c(Nc4ccc(CC(=O)O)cc4)n2)S(=O)(=O)CCC3)c(F)c1F | –
42 | 137 | 5.9 | 810 | O=C(O)Cc1ccc(Nc2nc(-c3ccc4ccccc4c3)nc3c2S(=O)(=O)CCC3)cc1F | IC50 [8]: 44 nM
